The values that follow come from patent US20110015267A1 (priority 2009, published 2011).

“Also recorded” adds a separate entry of the source. Where a name gives a salt, the structure may show the parent alone.

A short description of data set [1]: Conventional valproates combined with L-carnitine inner salt in water. The class given is physicochemical. The conditions noted are these: for Result When Combined With L-Carnitine Inner Salt in Water: dissolution / stability behaviour of the valproate in water. The source says: The inventor investigated methods for the preparation of long-needed, palatable liquid compositions having quantitatively precise defined proportions of valproate and L-carnitine in water. […] Instead, oily droplets of valproic acid adhered to the formulation vessel, making it impossible to formulate compositions having quantitatively precise defined proportions of valproate. […] This lack of purity renders it impossible to weigh calculated quantities of the magnesium valproate of '850 that are required for a quantitatively precise defined formulation and formulate a composition having the corresponding quantitatively precise defined proportions of valproate and L-carnitine; the weighed quantities of the magnesium valproate of '850 will contain variable proportions of impurities that are water-soluble, partially water-soluble, and water-insoluble as well as the magnesium valproate, and the resulting formulation will contain less than quantitatively precise proportions of valproate. […] Potassium valproate, cesium valproate, and rubidium valproate were not tested, because high concentrations of potassium, cesium, and rubidium are toxic.

Data set [2] is described as follows: Method B: incremental addition of magnesium valproate salt to L-carnitine inner salt solution.
Data set [3] can be described thus: Solubility limit of magnesium valproate salts in purified water USP (incremental addition). The procedure:
The experiment was repeated but valproate was added as L-carnitine magnesium valproate. Incremental portions of L-carnitine magnesium valproate were added to purified water until the solubility limit was reached, as indicated by the presence of white solid in the colorless aqueous supernatant. […] The solution was divided into portions, and known masses of L-carnitine inner salt, accurately weighed, were added to provide solutions having the compositions shown in Table 2. Each solution was tested by two analysts.

A short description of data set [4]: Sterilization of liquid dosage form by heating or filtration. Format: physicochemical. The source says:
Therefore, aqueous solutions of the invention must be prepared to be free of microbial contaminants. Most preferably, water that has been purified to meet US Pharmacopeial standards is used in preparing aqueous solutions of the invention. [U.S. Pharmacopeia, Volume 32. U.S. Pharmacopeial Convention, Rockville, Md. USP Monograph entitled “Purified Water” and chapter entitled “Water for Pharmaceutical Purposes”<1231>.] Water can be purified in known ways to be free of trace contaminants and microbes that cause undesirable side reactions when administered therapeutically to a subject. However, L-carnitine decomposes when subjected to heating. Therefore, the inventor has used aseptic processing and sterilization by filtration through a filter having a pore-size sufficiently small to allow passage of the composition of the invention through the pores but prevent passage of microbes to prepare compositions for pharmaceutical use.
A palatable liquid dosage form of the invention is divided into portions. Each portion is subjected to sterilization by (a) heating or (b) filtration through a filter membrane having a […] pore size.

For data set [5] the following is noted: cited from earlier work.
The conditions of data set [6]: cited from earlier work. The source holds these as a separate data set.
For data set [7] the following is noted: reported; not tested by the inventor; cited from earlier work.
The mark [8] stands for this setting: with about 1,000 mg/mL L-carnitine.

As to `CCCC(CCC)C(=O)O` [Divalproex sodium], the “Result When Combined With L-Carnitine Inner Salt in Water” value in data set [1] was “decomposed on addition to water”.
As to `CCCC(CCC)C(=O)[O-].CCCC(CCC)C(=O)[O-].C[N+](C)(C)C[C@H](O)CC(=O)[O-].[Mg+2]` [L-carnitine magnesium valproate, L-Carnitine magnesium valproate], in data set [2] (in aqueous L-carnitine inner salt, about 1,000 mg/mL L-carnitine), the “valproate concentration at the limit of solubility” value is “about 150 mg/mL”. In data set [2] (setting [8]), the “appearance of solution at the limit of solubility” value is “clear and colorless”; the “odor of solution at the limit of solubility” value is “no odor”; the pH of solution result was “near neutral”; the “taste of solution at the limit of solubility” value was “no taste”. Besides, the “solubility limit, valproate concentration of the solution” value in data set [3] was “about 150 mg/mL”.
As to `C[N+](C)(C)CC(O)CC(=O)[O-]` [L-carnitine, L-Carnitine inner salt], the “stability when subjected to heating” value in data set [4] was “decomposes”.
`CCCC(CCC)C(=O)[O-].[Na+]` [Sodium valproate]: in data set [1], the “Result When Combined With L-Carnitine Inner Salt in Water: solution appearance” value is given as “weighing. Solution was clear &” and the “Result When Combined With L-Carnitine Inner Salt in Water” value is “rapidly adsorbed water from the atmosphere; also recorded: Sodium valproate is hygroscopic”.
For the compound `CCCC(CCC)C(=O)O` [Valproic acid, 2-propylpentanoic acid], the solubility in water entry in data set [5] is listed as “very slightly soluble in water”. For the same compound, the “Result When Combined With L-Carnitine Inner Salt in Water” value in data set [1] (listed as valproic acid) was “poorly soluble in water”.
`CCCC(CCC)C(=O)O` [valproate]: in data set [6] (all conventional dosage forms), the “absorption from the gastrointestinal tract” value is “rapidly and nearly completely absorbed”; the “time of peak plasma concentrations after ingestion” value is 1 to 4 h. Also, in data set [6] (humans and other mammals), the “excreted in the urine as an L-carnitine ester” value is 3%; the “metabolized by β- and ω-oxidations in mitochondria and the cytosol” value was 17%; the “metabolized in the liver by direct glucuronidation” value is 80%.
Calcium valproate: in data set [7], the carcinogenicity result was “been reported to be carcinogenic”.
As for Magnesium valproate, the “Result When Combined With L-Carnitine Inner Salt in Water” value in data set [1] is “did not dissolve completely in water; also recorded: failed to dissolve completely;”.
Magnesium valproate hydrate: the pH of solution result in data set [2] (setting [8]) was “near neutral”.
